Assay results from patent US10822317B2, “Methods and compositions for wound healing” (QBiotics Limited, priority 2013, dated 2020).

System: human neonatal fibroblast cells (NFFs)
Test: Western blot of signalling molecules in human neonatal fibroblasts
Type: cell-based
Conditions: 10 or 30 ng/mL
Procedure: The Western Blot method was used to identify effects of Compounds 1 and 42 on proteins relevant to would repair and healing in human neonatal fibroblast cells (NFFs). Two studies were conducted. In the first study; NFFs were treated with either 10 or 30 ng Compound 1/mL for 6 or 24 hours, before harvesting and protein extraction. In the second study NFFs were treated individually with 30 ng/mL concentrations of Compounds 1 and 42 respectively for 6 hours. The resulting lysates from both studies were subjected to western blot analysis, and probing with specific antibodies to key signalling molecules involved in wound repair and healing.
The medium from adherent human neonatal fibroblasts grown in 75 cm^2 plates was removed and the cells were washed twice in ice cold PBS. The attached cells were harvested in 10 mL of ice cold PBS using a cell scraper (Costar, Corning) pelleted by centrifugation for 5 min (1,500 rpm, RTemp), resuspended in 1 mL of ice-cold PBS, and transferred to a 1.5 mL microfuge tube.
The cells were collected by centrifugation (13,200 rpm, RTemp, 2 s), the PBS removed and the pellets stored at −20° C. until required.
The frozen pellets were thawed on ice, and resuspended in a volume of cell lysis buffer 3-4 times the volume of the pellet by pipetting up and down. The cell suspension was sonicated 60 s at 4° C. and centrifuged for 20 min (13,200 rpm, 4° C.) and the […] containing the protein transferred to a fresh 1.5 ml microfuge tube. The protein was stored at −20° C.
Protein samples were diluted 1/10 and 1/20 (v/v) in MilliQ water and 10 μL was plated out in duplicate in. a flat-bottomed 96-well plate (Costar®, Corning). Stock solutions of bovine serum albumin (BSA) were prepared at 100, 200, 400, 600, 1,000, and 1,200 μg/mL and 10 μL/well plated out in duplicate and assayed alongside the samples. […] The raw absorbances were read at A590 nm on a microplate reader (VERSAmax, Molecular Devices) and a standard curve produced using SOFTmax PRO software (Molecular Devices). […]

Question: For `CC=C(C)C(=O)OC1C(C)C2(O)C(C3OC3(CO)C(O)C3(O)C(=O)C(C)=CC32)C2C(C)(C)C12OC(=O)C(C)CC` (stereo not drawn) [Compound 1, 12-tigloyl-13-(2-methylbutanoyl)-6,7-epoxy-4,5,9,12,13,20-hexahydroxy-1-tigliaen-3-one], which “levels of MMP9 (Western blot)” value (6 or 24 hours) is on record?
Answer: No difference

Question: And the “activation of MEK1/2 and ERK/2 (Western blot)” value (6 hours)?
Answer: transient activation

Question: What about the “activation of MEK1/2 and ERK/2 (Western blot)” value (24 hours) of the same compound?
Answer: down-regulation of activation
